From patent US20260262643A1, “HERBICIDAL BENZOXAZINES” (FMC CORPORATION, priority 2022, published 2026)

Tests used:
barnyardgrass [1] = experiment: Test C preemergence; type: in vivo, Echinochloa crusgalli; details: 0 to 100 scale (0 no effect, 100 complete control); for Plant response rating, Barnyardgrass: Preemergence, 500 g ai/ha, visual rating after 10 days; for Barnyardgrass plant response rating: Test C, preemergence, 125 g ai/ha
Method in brief: (§1)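 Greenhouse herbicide screen, 10-day duration. Test chemicals in solvent/surfactant blend were sprayed onto soil at sowing (pre) or onto 2–10 cm seedlings at one to two leaves (post); injury scored visually against controls, 0 no effect to 100 complete control.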

blackgrass [2] = experiment: Test C preemergence; type: in vivo, Alopecurus myosuroides; details: 0 to 100 scale (0 no effect, 100 complete control); for Plant response rating, Blackgrass: Preemergence, 500 g ai/ha, visual rating after 10 days; for Blackgrass plant response rating: Test C, preemergence, 125 g ai/ha
Method in brief: as §1

corn [3] = experiment: Test C preemergence; type: in vivo, Zea mays; details: 0 to 100 scale (0 no effect, 100 complete control); for Plant response rating, Corn: Preemergence, 500 g ai/ha, visual rating after 10 days; for Corn plant response rating: Test C, preemergence, 125 g ai/ha
Method in brief: as §1

green foxtail [4] = experiment: Test C preemergence; type: in vivo, Setaria viridis; details: 0 to 100 scale (0 no effect, 100 complete control); for Plant response rating, Foxtail, Green: Preemergence, 500 g ai/ha, visual rating after 10 days; for Foxtail, Green plant response rating: Test C, preemergence, 125 g ai/ha
Method in brief: as §1

kochia [5] = experiment: Test C preemergence; type: in vivo, Bassia scoparia; details: 0 to 100 scale (0 no effect, 100 complete control); for Plant response rating, Kochia: Preemergence, 500 g ai/ha, visual rating after 10 days; for Kochia plant response rating: Test C, preemergence, 125 g ai/ha
Method in brief: as §1

oat, wild [6] = experiment: Test C preemergence; type: in vivo, Avena fatua; details: 0 to 100 scale (0 no effect, 100 complete control); for Plant response rating, Oat, Wild: Preemergence, 500 g ai/ha, visual rating after 10 days; for Oat, Wild plant response rating: Test C, preemergence, 125 g ai/ha
Method in brief: as §1

pigweed, palmer [7] = experiment: Test C preemergence; type: in vivo, Amaranthus palmeri; details: 0 to 100 scale (0 no effect, 100 complete control); for Plant response rating, Pigweed, Palmer: Preemergence, 500 g ai/ha, visual rating after 10 days; for Pigweed, Palmer plant response rating: Test C, preemergence, 125 g ai/ha
Method in brief: as §1

ragweed [8] = experiment: Test C preemergence; type: in vivo, Ambrosia artemisiifolia; details: 0 to 100 scale (0 no effect, 100 complete control); for Plant response rating, Ragweed: Preemergence, 500 g ai/ha, visual rating after 10 days; for Ragweed plant response rating: Test C, preemergence, 125 g ai/ha
Method in brief: as §1

ryegrass, Italian [9] = experiment: Test C preemergence; type: in vivo, Lolium multiflorum; details: 0 to 100 scale (0 no effect, 100 complete control); for Plant response rating, Ryegrass, Italian: Preemergence, 500 g ai/ha, visual rating after 10 days; for Ryegrass, Italian plant response rating: Test C, preemergence, 125 g ai/ha
Method in brief: as §1

soybean [10] = experiment: Test C preemergence; type: in vivo, Glycine max; details: 0 to 100 scale (0 no effect, 100 complete control); for Plant response rating, Soybean: Preemergence, 500 g ai/ha, visual rating after 10 days; for Soybean plant response rating: Test C, preemergence, 125 g ai/ha
Method in brief: as §1

wheat [11] = experiment: Test C preemergence; type: in vivo, Triticum aestivum; details: 0 to 100 scale (0 no effect, 100 complete control); for Plant response rating, Wheat: Preemergence, 500 g ai/ha, visual rating after 10 days; for Wheat plant response rating: Test C, preemergence, 125 g ai/ha
Method in brief: as §1

barnyardgrass [12] = experiment: Test C postemergence; type: in vivo, Echinochloa crusgalli; details: 10 days
Method in brief: as §1

blackgrass [13] = experiment: Test C postemergence; type: in vivo, Alopecurus myosuroides; details: 10 days
Method in brief: as §1

corn [14] = experiment: Test C postemergence; type: in vivo, Zea mays; details: 10 days
Method in brief: as §1

green foxtail [15] = experiment: Test C postemergence; type: in vivo, Setaria viridis; details: 10 days
Method in brief: as §1

kochia [16] = experiment: Test C postemergence; type: in vivo, Bassia scoparia; details: 10 days
Method in brief: as §1

oat, wild [17] = experiment: Test C postemergence; type: in vivo, Avena fatua; details: 10 days
Method in brief: as §1

pigweed, palmer [18] = experiment: Test C postemergence; type: in vivo, Amaranthus palmeri; details: 10 days
Method in brief: as §1

ragweed [19] = experiment: Test C postemergence; type: in vivo, Ambrosia artemisiifolia; details: 10 days
Method in brief: as §1

ryegrass, Italian [20] = experiment: Test C postemergence; type: in vivo, Lolium multiflorum; details: 10 days
Method in brief: as §1

soybean [21] = experiment: Test C postemergence; type: in vivo, Glycine max; details: 10 days
Method in brief: as §1

wheat [22] = experiment: Test C postemergence; type: in vivo, Triticum aestivum; details: 10 days
Method in brief: as §1

galium = experiment: Test C postemergence; type: in vivo, Galium aparine; details: 125 g ai/ha, postemergence, 10 days; 0 to 100 scale, 0 no effect, 100 complete control
Method in brief: as §1

horseweed = experiment: Test C postemergence; type: in vivo, Erigeron canadensis; details: 10 days
Method in brief: as §1

barnyardgrass [23] = experiment: Test D flooded paddy test; type: in vivo, Echinochloa crus-galli; details: 250 g ai/ha, applied to paddy water, visual rating after 13 to 14 days, scale 0 to 100 (0 no effect, 100 complete control)
Method in brief: (§2)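 Visual ratings from 0, meaning no effect, to 100, meaning complete control, were assigned against untreated controls 13 to 14 days after compounds were added to the floodwater of pots kept 3 cm deep, with plants at the 2-leaf stage.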

ducksalad = experiment: Test D flooded paddy test; type: in vivo, Heteranthera limosa; details: 250 g ai/ha, applied to paddy water, visual rating after 13 to 14 days, scale 0 to 100 (0 no effect, 100 complete control)
Method in brief: as §2

rice = experiment: Test D flooded paddy test; type: in vivo, Oryza sativa; details: 250 g ai/ha, applied to paddy water, visual rating after 13 to 14 days, scale 0 to 100 (0 no effect, 100 complete control)
Method in brief: as §2

sedge, umbrella = experiment: Test D flooded paddy test; type: in vivo, Cyperus difformis; details: 250 g ai/ha, applied to paddy water, visual rating after 13 to 14 days, scale 0 to 100 (0 no effect, 100 complete control)
Method in brief: as §2

[24] = 125 g ai/ha, postemergence, 0 to 100 scale, 0 no effect, 100 complete control
[25] = Postemergence, 500 g ai/ha, visual 0 to 100 scale (0 no effect, 100 complete control)

Cc1ccc(-n2cnc(C(C)(F)F)n2)cc1C(=O)N1C[C@H](C)Oc2c(Cl)cccc21 [Compound 248]
40: Oat, Wild plant response rating (oat, wild [6]) | Wheat plant response rating (wheat [11]) | Plant response rating, Horseweed (horseweed; [25])
60: Soybean plant response rating (soybean [10]) | Plant response rating, Corn (corn [14]; [24]) | Plant response rating, Oat, Wild (oat, wild [17]; [24])
100: Plant response rating, Barnyardgrass (barnyardgrass [1]) | Barnyardgrass plant response rating (barnyardgrass [1]) | Plant response rating, Foxtail, Green (green foxtail [4]) | Foxtail, Green plant response rating (green foxtail [4]) | Plant response rating, Kochia (kochia [5]) | Kochia plant response rating (kochia [5]) | Plant response rating, Pigweed, Palmer (pigweed, palmer [7]) | Pigweed, Palmer plant response rating (pigweed, palmer [7]) | Plant response rating, Ryegrass, Italian (ryegrass, Italian [9]) | Plant response rating, Soybean (soybean [10]) | Plant response rating, Blackgrass (blackgrass [13]; [25]) | Plant response rating, Kochia (kochia [16]; [25]) | Plant response rating, Pigweed, Palmer (pigweed, palmer [18]; [25]) | Plant response rating, Ryegrass, Italian (ryegrass, Italian [20]; [25]) | Plant response rating, Soybean (soybean [21]; [24]) | Plant response rating, Soybean (soybean [21]; [25]) | Plant response rating, Galium (galium)
80: Ragweed plant response rating (ragweed [8])
70: Plant response rating, Blackgrass (blackgrass [2]) | Plant response rating, Barnyardgrass (barnyardgrass [12]; [25]) | Plant response rating, Corn (corn [14]; [25]) | Plant response rating, Oat, Wild (oat, wild [17]; [25])
30: Blackgrass plant response rating (blackgrass [2]) | Plant response rating, Wheat (wheat [22]; [24])
10: Plant response rating, Horseweed (horseweed; [24])
90: Plant response rating, Oat, Wild (oat, wild [6]) | Plant response rating, Ragweed (ragweed [8]) | Ryegrass, Italian plant response rating (ryegrass, Italian [9]) | Plant response rating, Wheat (wheat [11]) | Plant response rating, Blackgrass (blackgrass [13]; [24]) | Plant response rating, Foxtail, Green (green foxtail [15]; [24]) | Plant response rating, Foxtail, Green (green foxtail [15]; [25]) | Plant response rating, Kochia (kochia [16]; [24]) | Plant response rating, Pigweed, Palmer (pigweed, palmer [18]; [24]) | Plant response rating, Ragweed (ragweed [19]; [24]) | Plant response rating, Ragweed (ragweed [19]; [25]) | Plant response rating, Ryegrass, Italian (ryegrass, Italian [20]; [24]) | Plant response rating, Wheat (wheat [22]; [25])
20: Corn plant response rating (corn [3])
50: Plant response rating, Corn (corn [3]) | Plant response rating, Barnyardgrass (barnyardgrass [12]; [24])
0: Plant response rating, Barnyardgrass (Flood) (barnyardgrass [23]) | Plant response rating, Ducksalad (Flood) (ducksalad) | Plant response rating, Rice (Flood) (rice) | Plant response rating, Sedge, Umbrella (Flood) (sedge, umbrella)

CC(C)c1ncn(-c2ccc(SC(F)(F)F)c(C(=O)N3C[C@H](C)Oc4c(Cl)cccc43)c2)n1 [Compound 249]
30: Plant response rating, Pigweed, Palmer (pigweed, palmer [7]) | Pigweed, Palmer plant response rating (pigweed, palmer [7]) | Plant response rating, Foxtail, Green (green foxtail [15]; [24]) | Plant response rating, Foxtail, Green (green foxtail [15]; [25])
80: Plant response rating, Kochia (kochia [16]; [25])
10: Plant response rating, Barnyardgrass (barnyardgrass [12]; [24]) | Plant response rating, Barnyardgrass (barnyardgrass [12]; [25]) | Plant response rating, Corn (corn [14]; [25]) | Plant response rating, Wheat (wheat [22]; [24]) | Plant response rating, Wheat (wheat [22]; [25])
90: Plant response rating, Foxtail, Green (green foxtail [4]) | Foxtail, Green plant response rating (green foxtail [4]) | Plant response rating, Galium (galium)
0: Plant response rating, Corn (corn [3]) | Corn plant response rating (corn [3]) | Plant response rating, Kochia (kochia [5]) | Kochia plant response rating (kochia [5]) | Plant response rating, Oat, Wild (oat, wild [6]) | Oat, Wild plant response rating (oat, wild [6]) | Plant response rating, Ragweed (ragweed [8]) | Ragweed plant response rating (ragweed [8]) | Soybean plant response rating (soybean [10]) | Plant response rating, Wheat (wheat [11]) | Wheat plant response rating (wheat [11]) | Plant response rating, Blackgrass (blackgrass [13]; [24]) | Plant response rating, Blackgrass (blackgrass [13]; [25]) | Plant response rating, Corn (corn [14]; [24]) | Plant response rating, Oat, Wild (oat, wild [17]; [24]) | Plant response rating, Oat, Wild (oat, wild [17]; [25]) | Plant response rating, Ragweed (ragweed [19]; [24]) | Plant response rating, Ragweed (ragweed [19]; [25]) | Plant response rating, Ryegrass, Italian (ryegrass, Italian [20]; [24]) | Plant response rating, Ryegrass, Italian (ryegrass, Italian [20]; [25]) | Plant response rating, Horseweed (horseweed; [24]) | Plant response rating, Horseweed (horseweed; [25]) | Plant response rating, Barnyardgrass (Flood) (barnyardgrass [23]) | Plant response rating, Ducksalad (Flood) (ducksalad) | Plant response rating, Rice (Flood) (rice) | Plant response rating, Sedge, Umbrella (Flood) (sedge, umbrella)
40: Ryegrass, Italian plant response rating (ryegrass, Italian [9]) | Plant response rating, Pigweed, Palmer (pigweed, palmer [18]; [24])
60: Plant response rating, Blackgrass (blackgrass [2]) | Plant response rating, Ryegrass, Italian (ryegrass, Italian [9])
70: Plant response rating, Pigweed, Palmer (pigweed, palmer [18]; [25])
100: Plant response rating, Soybean (soybean [21]; [24]) | Plant response rating, Soybean (soybean [21]; [25])
50: Plant response rating, Kochia (kochia [16]; [24])
20: Plant response rating, Barnyardgrass (barnyardgrass [1]) | Barnyardgrass plant response rating (barnyardgrass [1]) | Blackgrass plant response rating (blackgrass [2]) | Plant response rating, Soybean (soybean [10])
